Patent US20110092600A1, “PHARMACEUTICAL COMPOSITIONS COMPRISING AMINOCYCLOHEXANE DERIVATIVES” (MERZ PHARMA GMBH & KGAA, priority 2008, published 2011)

Key:
[1] = Isothermal titration calorimetry (ITC) of complexation with HPGCD; type: physicochemical
Experimental: (§1) Complexes between neramexane mesylate and either hydroxypropyl-beta-cyclodextrin (HPBCD; grade: Kleptose™ HPB) or hydroxypropyl-gamma-cyclodextrin (HPGCD; grade: Cavasol™ W8 HP Pharma) are formed and investigated by isothermal titration calorimetry (ITC). The experiments are performed on a Microcal MCS-ITC instrument. The procedure consists of iteratively adding small portions of a test solution (here: a neramexane mesylate solution) through a motorised microlitre syringe to a receptor solution (here: a cyclodextrin solution) located in the calorimeter. Upon complexation, an exothermic or endothermic signal is produced which represents the sum of all thermal events including complexation itself, but also heats of dilution or (de)protonation. The titration curves are evaluated with the Microcal Origin software V2.9 with its original data evaluation module for titration calorimetric evaluations.
(§2) The experiments are carried out using aqueous phosphate buffer of pH 6 as a solvent. Solutions of neramexane mesylate, HPBCD, and HPGCD of various concentrations are prepared, and a number of titrations are conducted using different maximal molar ratios of neramexane to cyclodextrin (after complete addition of the drug substance), ranging from 1.25 to 5. Titrations with solvent solutions alone and in combination with cyclodextrin solution are performed to obtain curves indicating the heats of dilution, which may be used as baseline data for the correction of the complexation curves.

[2] = Isothermal titration calorimetry (ITC) of complexation with HPBCD; type: physicochemical
Experimental: as §1, §2

[3] = final molar ratio 1.8, aqueous phosphate buffer pH 6
[4] = final molar ratio 1.25, aqueous phosphate buffer pH 6
[5] = final molar ratio of neramexane to cyclodextrin 5, aqueous phosphate buffer pH 6

- thermal nature of complexation ([1]; aqueous phosphate buffer pH 6): endothermic
- equilibrium constant [1, 3]: 112 M⁻¹
- stoichiometry of binding [1, 3]: 0.93
- thermal nature of complexation ([2]; aqueous phosphate buffer pH 6): exothermic
- equilibrium constant [2, 4]: 413 M⁻¹
- stoichiometry of binding (of neramexane per cyclodextrin molecule) [2, 4]: 0.4
- equilibrium constant [2, 5]: 788 M⁻¹
- stoichiometry of binding (of neramexane per cyclodextrin molecule) [2, 5]: 0.84
SMILES: CC1(C)CC(C)(C)CC(C)(N)C1 [neramexane, 1-amino-1,3,3,5,5-pentamethylcyclohexane]
